Assay results: patent US6900019B1, “In-situ cell extraction and assay method” (Amersham Biosciences UK Limited, priority 1997, dated 2005)
Where “and” joins values, the source holds several entries; their conditions need not be identical. Identical values can stand only once.

Tested on: rabbit anti-cAMP sera (antigen:antibody binding)
Experiment: Scintillation proximity radioimmunoassay for cAMP: standard curves with lysis reagents and sequestrants
Experimental: All assays were carried out in microtitre plates compatible with a microtitre plate beta scintillation counter. Standards (50 μl; 0.2-12.8 pmol/well), antisera (50 μl; at 1:11000 dilution), tracer (50 ul; 10000-20000 cpm) are added to anti-rabbit coated SPA beads (50 μl; 20 mg/ml). Non-specific binding was determined in the absence of specific rabbit antisera. SPA anti-rabbit reagent is placed onto a magnetic stirrer to ensure a homogeneous suspension before pipetting. All wells contained a total volume of 200 μl. The plates were sealed and incubated at room temperature (15-30° C.) for 15-20 hours. The amount of [^125I]cAMP bound to the SPA fluomicrospheres was determined by counting in a microtitre plate beta scintillation counter for 2 minutes.
Experiments were set up with:— • a) Working standards (4-256 pmol/ml; 0.2-12.8 pmol/well) were prepared in assay buffer (0.05M sodium acetate buffer containing 0.01% sodium azide) only (control) or assay buffer containing lysis reagent (e.g. DTAB, CPC or SDS; see experiment 1) at various concentrations. • b) Rabbit anti-cAMP sera prepared in assay buffer only (control) or assay buffer containing sequestrating agent at various concentrations depending on the experiment. • c) Radioactive tracer: adenosine 3′ 5′-cyclic phosphoric acid 2′-O-succinyl-3-[^125I] iodotyrosine methyl ester prepared in assay buffer only (control) or assay buffer containing sequestrating agent at various concentrations depending on the experiment. • d) Donkey anti-rabbit IgG coupled to scintillation proximity fluomicrospheres prepared in assay buffer only (control) or assay buffer containing sequestrating agent at various concentrations depending on the experiment. Experiment 1: Inhibition of Antigen and Antibody Binding by Several Lysis Reagents Method
In these experiments, standard curves were prepared for cAMP using the SPA immunoassay technique, described above, where working standards of cAMP were prepared in several lysis reagents at 1% (w/v) or 2% (w/v) final concentration. The detergents investigated included dodecyl trimethyl ammonium bromide (DTAB; Sigma Chemical Co. D8638), benzethonium chloride (BZC; Aldrich; B470-8), cetyl pyridinium chloride (CPC; Sigma Chemical Co; C9002), sodium dodecyl sulphate (SDS, Sigma chemical Co; L4509) and N-dodecyl-N,N-dimethyl-3-ammonio-1-propanesulphonate (DDAPS; Sigma Chemical Co.; D4516).
In these experiments, standard curves for cAMP were prepared using the SPA immunoassay technique described above, where working standards of cAMP were prepared in 1% (w/v), 1.5% (w/v) or 2% (w/v) lysis reagents (DTAB, SDS or CPC). The control consisted of no lysis reagent or cyclodextrin added. The effect including 2.5% (w/v) alpha-cyclodextrin (alpha-CD) (Sigma Chemical Co.; C4642) on antigen:antibody binding was investigated. Here, tracer, antisera and SPA beads were prepared in assay buffer containing 2.5% (w/v) alpha-CD. A second control tested the effect of 2.5% (w/v) alpha-CD on the standard curve without addition of lysis reagent.
In this experiment, standard curves for cAMP were prepared using the SPA radioimmunoassay where working standards of cAMP were prepared in 1% (w/v) DTAB. The effect of including 1% (w/v), 2% (w/v), 2.5% (w/v) and 5% (w/v) alpha-cyclodextrin on antigen:antibody binding was investigated. Here, tracer, antisera and SPA beads were prepared in assay buffer containing alpha-CD at the above concentrations. The control consisted of no lysis or cyclodextrin added to the assay.
In this experiment, standard curves for cAMP were prepared using the SPA immunoassay technique where working standards were prepared 1% (wt) lysis reagent (DTAB). The effect of including 2.5% (w/v) alpha-cyclodextrin (CD) 2.5% (w/v) beta-cyclodextrin (beta-CD) (Sigma is Chemical Co.; C4767) and 2.5% (w/v) gamma-cyclodextrin (gamma-CD) (Sigma Chemical Co.; 4892) on antigen:antibody binding was investigated. […]

OC[C@H]1O[C@@H]2O[C@H]3[C@H](O)[C@@H](O)[C@@H](O[C@H]4[C@H](O)[C@@H](O)[C@@H](O[C@H]5[C@H](O)[C@@H](O)[C@@H](O[C@H]6[C@H](O)[C@@H](O)[C@@H](O[C@H]7[C@H](O)[C@@H](O)[C@@H](O[C@H]1[C@H](O)[C@H]2O)O[C@@H]7CO)O[C@@H]6CO)O[C@@H]5CO)O[C@@H]4CO)O[C@@H]3CO [CD, alpha-cyclodextrin]
restoration of antigen:antibody binding (1% (w/v) and 2% (w/v) alpha-CD, standards in 1% DTAB): restored binding to a limited degree | restoration of antigen:antibody binding (2.5% (w/v) alpha-CD, standards in 1% DTAB): optimal results | restoration of antigen:antibody binding by different sequestrants (2.5% (w/v) sequestrant, standards in 1% DTAB): restored binding to an optimal degree | effect on the cAMP standard curve (2.5% alpha-CD only, no lysis reagent): little impact | [125I]cAMP bound to SPA beads, counts per minute (2.5% alpha-cyclodextrin only, no lysis reagent, 0.2 pmol cAMP/well): 2790 cpm | [125I]cAMP bound to SPA beads, counts per minute (2.5% alpha-cyclodextrin only, no lysis reagent, 0.2 pmol cAMP/well, listed as cyclodextrin): 2358 cpm | [125I]cAMP bound to SPA beads, counts per minute (2.5% alpha-cyclodextrin only, no lysis reagent, 0.4 pmol cAMP/well): 2485 cpm | [125I]cAMP bound to SPA beads, counts per minute (2.5% alpha-cyclodextrin only, no lysis reagent, 0.4 pmol cAMP/well, listed as cyclodextrin): 1979 cpm | [125I]cAMP bound to SPA beads, counts per minute (2.5% alpha-cyclodextrin only, no lysis reagent, 0.8 pmol cAMP/well): 1979 cpm | [125I]cAMP bound to SPA beads, counts per minute (2.5% alpha-cyclodextrin only, no lysis reagent, 0.8 pmol cAMP/well, listed as cyclodextrin): 1682 cpm | [125I]cAMP bound to SPA beads, counts per minute (2.5% alpha-cyclodextrin only, no lysis reagent, 1.6 pmol cAMP/well): 1503 cpm | [125I]cAMP bound to SPA beads, counts per minute (2.5% alpha-cyclodextrin only, no lysis reagent, 1.6 pmol cAMP/well, listed as cyclodextrin): 1499 cpm | [125I]cAMP bound to SPA beads, counts per minute (2.5% alpha-cyclodextrin only, no lysis reagent, 3.2 pmol cAMP/well): 1058 cpm | [125I]cAMP bound to SPA beads, counts per minute (2.5% alpha-cyclodextrin only, no lysis reagent, 3.2 pmol cAMP/well, listed as cyclodextrin): 1143 cpm | [125I]cAMP bound to SPA beads, counts per minute (2.5% alpha-cyclodextrin only, no lysis reagent, 6.4 pmol cAMP/well): 674 cpm | [125I]cAMP bound to SPA beads, counts per minute (2.5% alpha-cyclodextrin only, no lysis reagent, 6.4 pmol cAMP/well, listed as cyclodextrin): 754 cpm | [125I]cAMP bound to SPA beads, counts per minute (2.5% alpha-cyclodextrin only, no lysis reagent, 12.8 pmol cAMP/well): 415 cpm | [125I]cAMP bound to SPA beads, counts per minute (2.5% alpha-cyclodextrin only, no lysis reagent, 12.8 pmol cAMP/well, listed as cyclodextrin): 383 cpm | [125I]cAMP bound to SPA beads, counts per minute (2.5% alpha-cyclodextrin only, no lysis reagent, NSB (no specific antisera)): 155 cpm | [125I]cAMP bound to SPA beads, counts per minute (2.5% alpha-cyclodextrin only, no lysis reagent, NSB (no specific antisera), listed as cyclodextrin): 199 cpm | [125I]cAMP bound to SPA beads, counts per minute (2.5% alpha-cyclodextrin only, no lysis reagent, Zero standard): 3300 cpm | [125I]cAMP bound to SPA beads, counts per minute (2.5% alpha-cyclodextrin only, no lysis reagent, Zero standard, listed as cyclodextrin): 3145 cpm | restoration of antigen:antibody binding (5% (w/v) alpha-CD, standards in 1% DTAB): inhibitory

CCCCCCCCCCCC[N+](C)(C)C.[Br-] [DTAB, dodecyl trimethyl ammonium bromide]
[125I]cAMP bound to SPA beads, counts per minute (1% lysis reagent, no sequestrant, 0.2 pmol cAMP/well): 1118 cpm and 1575 cpm | [125I]cAMP bound to SPA beads, counts per minute (1% lysis reagent, no sequestrant, 0.4 pmol cAMP/well): 1098 cpm and 1573 cpm | [125I]cAMP bound to SPA beads, counts per minute (1% lysis reagent, no sequestrant, 0.8 pmol cAMP/well): 1088 cpm and 1305 cpm | [125I]cAMP bound to SPA beads, counts per minute (1% lysis reagent, no sequestrant, 1.6 pmol cAMP/well): 977 cpm and 1097 cpm | [125I]cAMP bound to SPA beads, counts per minute (1% lysis reagent, no sequestrant, 3.2 pmol cAMP/well): 860 cpm and 813 cpm | [125I]cAMP bound to SPA beads, counts per minute (1% lysis reagent, no sequestrant, 6.4 pmol cAMP/well): 649 cpm and 619 cpm | [125I]cAMP bound to SPA beads, counts per minute (1% lysis reagent, no sequestrant, 12.8 pmol cAMP/well): 440 cpm and 439 cpm | [125I]cAMP bound to SPA beads, counts per minute (1% lysis reagent, no sequestrant, NSB (no specific antisera)): 130 cpm and 182 cpm | [125I]cAMP bound to SPA beads, counts per minute (1% lysis reagent, no sequestrant, Zero standard): 1429 cpm and 1586 cpm | [125I]cAMP bound to SPA beads, counts per minute (1.5% lysis reagent only, 0.2 pmol cAMP/well): 799 cpm | [125I]cAMP bound to SPA beads, counts per minute (1.5% lysis reagent only, 0.4 pmol cAMP/well): 713 cpm | [125I]cAMP bound to SPA beads, counts per minute (1.5% lysis reagent only, 0.8 pmol cAMP/well): 688 cpm | [125I]cAMP bound to SPA beads, counts per minute (1.5% lysis reagent only, 1.6 pmol cAMP/well): 513 cpm | [125I]cAMP bound to SPA beads, counts per minute (1.5% lysis reagent only, 3.2 pmol cAMP/well): 426 cpm | [125I]cAMP bound to SPA beads, counts per minute (1.5% lysis reagent only, 6.4 pmol cAMP/well): 376 cpm | [125I]cAMP bound to SPA beads, counts per minute (1.5% lysis reagent only, 12.8 pmol cAMP/well): 264 cpm | [125I]cAMP bound to SPA beads, counts per minute (1.5% lysis reagent only, NSB (no specific antisera)): 237 cpm | [125I]cAMP bound to SPA beads, counts per minute (1.5% lysis reagent only, Zero standard): 819 cpm | [125I]cAMP bound to SPA beads, counts per minute (2% lysis reagent, no sequestrant, 0.2 pmol cAMP/well): 231 cpm and 198 cpm | [125I]cAMP bound to SPA beads, counts per minute (2% lysis reagent, no sequestrant, 0.4 pmol cAMP/well): 231 cpm and 216 cpm | [125I]cAMP bound to SPA beads, counts per minute (2% lysis reagent, no sequestrant, 0.8 pmol cAMP/well): 201 cpm | [125I]cAMP bound to SPA beads, counts per minute (2% lysis reagent, no sequestrant, 1.6 pmol cAMP/well): 195 cpm and 179 cpm | [125I]cAMP bound to SPA beads, counts per minute (2% lysis reagent, no sequestrant, 3.2 pmol cAMP/well): 179 cpm and 176 cpm | [125I]cAMP bound to SPA beads, counts per minute (2% lysis reagent, no sequestrant, 6.4 pmol cAMP/well): 170 cpm and 144 cpm | [125I]cAMP bound to SPA beads, counts per minute (2% lysis reagent, no sequestrant, 12.8 pmol cAMP/well): 93 cpm and 78 cpm | [125I]cAMP bound to SPA beads, counts per minute (2% lysis reagent, no sequestrant, NSB (no specific antisera)): 145 cpm and 138 cpm | [125I]cAMP bound to SPA beads, counts per minute (2% lysis reagent, no sequestrant, Zero standard): 272 cpm and 217 cpm
